“Also recorded” adds a separate entry of the source.
Columns and labels:
[1] = system: LPS Re595; test: liver uptake and serum residence of 125I-LPS after intravenous injection in mice; assay type: in vivo, Wild-type (C57B1/6) mice; conditions: for effect on behavior of 125I-LPS after intravenous injection (liver uptake, residence in blood): 125I-LPS Re595 10 μg/kg, LPS:apoCI 1:0.2 to 1:16, LPS:albumin 1:16
Experimental: Wild-type (C57B1/6) mice were anesthetized and, via the lower vena cava, injected intravenously with radioactively (^125I) labeled LPS Re595 (10 μg/kg) without, and with, respectively, apoCI (molar ratio LPS:apoCI=1:0.2, 1:0.5, 1:1 and 1:16) and bovine serum albumin (molar ratio LPS:albumin=1:16). Blood samples and bits of liver tissue were taken at t=2, 5, 10, 20 and 30 minutes after injection. After this, the mice were sacrificed. Next, the amounts of LPS in the blood sera and liver samples were quantified on the basis of the amount of radioactive radiation. Also, a serum sample was taken 30 minutes after injection of LPS:apoCI (1:1) and subjected to agarose gel electrophoresis to study the distribution of the ^125I-LPS over the various lipoproteins. Lipoprotein lipids were visualized with the aid of Sudan Black, and ^125I-LPS by means of autoradiography. In FIGS. 6A and 6B the amounts of ^125I-LPS in the liver and the blood serum, respectively, are plotted as a percentage of the injected dose against time (n=3.+−.SEM). […] Already at a molar ratio of 1:1, the uptake of LPS by the liver was reduced 8-fold. The strong binding of apoCI to LPS (see Example 2) therefore proves to be relevant in the blood too.

[2] = system: FITC-LPS Re595; test: monomerization of FITC-LPS by murine plasma with different apoCI levels; assay type: biochemical, mouse
Experimental: We have determined the effect of the apoCI level in murine plasma on monomerization of FITC-LPS as described in Example 2. For that purpose, FITC-LPS was incubated with plasma that had been isolated from wild-type mice, genetically modified mice which are deficient for apoCI (apocl^−/−), or genetically modified mice which express the human apoCI hemizygote (APOC1^+/0) or homozygote (APOC1^+/+).
FITC-LPS Re595 (100 ng) was incubated with plasma (0.125%) isolated from the blood of the various mouse types, after which the occurrence of fluorescence was followed in time with the aid of a fluorimeter. The expression of human apoCI in mouse plasma led to an apoCI-dose dependent increase of the FITC-LPS monomerization, which was 32% at a maximum. […] This indicates not only that mouse-apoCI, like human apoCI, is capable of monomerizing LPS, but especially also that the endogenous presence of apoCI contributes for a considerable part to the total LPS-disaggregated capacity of mouse plasma.

[3] = system: LPS; test: LPS-induced inhibition of apolipoprotein-specific sandwich ELISA; assay type: binding
Experimental: The apoCI level in blood plasma can be established in any suitable manner. Preferably, the apoCI level is determined with a sandwich Enzyme-Linked ImmunoSorbent Assay (sandwich ELISA). To this end, for instance 96-wells plates (medium-binding plates; Costar) are coated with a (10,000-fold dilution of a) polyclonal antibody to human apoCI generated in goat (goat-anti human apoCI; Academy Bio-Medical Company, Houston, USA; cat. 31A-Glb). Next, human blood plasma or serum is added (100,000-300,000-fold dilution), whereby the apoCI present therein is quantitatively bound by this primary antibody. […] The HRP is subsequently quantified by means of a stain reaction with 3,3′,5,5′-tetramethylbenzidine (TMB) as substrate, and the stain intensity is compared with a calibration curve which is constructed with pure human apoCI (Labconsult, Brussels, Belgium; cat. A50366H).
A particular amount of human apoCI (0.75 ng/mL) was incubated with LPS in increasing molar ratios, after which the apoCI concentration was determined with the aid of the human apoCI-specific sandwich ELISA as described above under F. The LPS-induced inhibition of the stain reaction from which the apoCI concentration is read, was determined as a percentage of the maximum staining in the absence of LPS (n=2.+−.SEM) (FIG. 3). […]

[4] = system: FITC-LPS Re595; test: monomerization of FITC-LPS by pure apolipoprotein (fluorescence dequenching); assay type: biochemical; conditions: FITC-LPS Re595 100 ng, molar ratios 1:1, 1:5, 1:10 and 1:20
Experimental: Finally, the effect of apoCI on the monomerization rate of LPS was studied. […] FITC-LPS Re595 (100 ng) was incubated with pure human apoCI (in molar ratios 1:1, 1:5, 1:10 and 1:20), after which the occurrence of fluorescence was followed in time with the aid of a fluorimeter.

[5] = system: TNFα; test: LPS-induced TNFα response in mice; assay type: in vivo, Wild-type (C57B1/6) mice
Experimental: Wild-type (C57B1/6) mice were injected, by way of the tail vein, with LPS Re595 (25 μg/kg) without, and with, apoCI (molar ratio LPS:apoCI=1:5). Blood samples were taken at t=0, 30, 60, 90, 120 and 180 minutes after injection. In the samples, subsequently, the amount of TNFα was quantified with the aid of a mouse-TNFα specific ELISA according to the accompanying instructions (Immunosource, Halle, Belgium, cat. no. BMS607MST), and the amounts of TNFα in the blood plasma were subsequently plotted against time.

[6] = system: LPS Re595 (Salmonella minnesota); test: agarose gel electrophoresis of 125I-LPS incubated with human apoCI; assay type: binding
Experimental: LPS Re595 (Salmonella minnesota) was radioactively labeled with ^125I as described (Rensen, 1997) and incubated (30 min at 37° C.) with increasing amounts of human apoCI which has been isolated from human blood (Tournier, 1984). Next, the incubation volumes were transferred to an agarose gel (position Rf 0), after which, for 2 hours, an electrophoretic field was applied (so-called agarose gel electrophoresis). After electrophoresis, the ^125I-LPS was visualized by means of autoradiography. Through its negative charge, LPS tends to migrate to the positive pole (anode); which, however, is prevented in that the LPS forms large micellary structures that cannot pass the relatively small pores formed by the agarose matrix.
Also, the effect of increasing amounts of LPS on the migration of a fixed amount of apoCI was determined. For that purpose, the apoCI was visualized in the gel after electrophoresis by means of immunoblotting with a horseradish peroxidase-conjugated antibody directed against human apoCI (Academy Bio-Medical Company, Houston, USA; cat. 31H-G1b).

Bovine serum albumin: bovine serum albumin used as control protein [reference compound]
effect on behavior of 125I-LPS after intravenous injection (liver uptake, residence in blood) [1]: not effective

TPDVSSALDKLKEFGNTLEDKARELISRIKQSELSAKMREWFSETFQKVKEKLKIDS (human apoCI peptide) [human apolipoprotein CI, 57 amino acids, 6.6 kDa, purified from human blood]
increase of the FITC-LPS monomerization by expression of human apoCI in mouse plasma ([2]; plasma 0.125% of APOC1+/0 or APOC1+/+ mice versus wild-type, maximum): 32%
LPS-induced inhibition of the staining reaction of apoCI-specific sandwich ELISA ([3]; 200-fold molar excess of LPS to apoCI, apoCI 0.75 ng/mL, percentage of maximum staining in absence of LPS): more than 40%
increase in FITC fluorescence (monomerization of LPS) [4]: dose-dependent monomerization of LPS micelles
increase in FITC fluorescence (monomerization of LPS) ([4]; listed as ApoCI): increase strongly in a dose-dependent manner
increase of the LPS-induced TNF level versus LPS alone ([5]; LPS Re595 25 μg/kg with apoCI, molar ratio 1:5): fourfold
LPS-induced TNF level in blood plasma ([5]; LPS Re595 25 μg/kg with apoCI, molar ratio LPS:apoCI 1:5, tail vein, versus 2.8 for LPS alone): 10.8 ng/mL
TNFα induction by apoCI without LPS ([5]; equal amount of apoCI without LPS): no TNFα inducing effect
migration of 125I-LPS in agarose gel ([6]; 0.5 molecules of apoCI with respect to 1 molecule of LPS, incubated 30 min at 37° C., 2 hours electrophoresis): complete migration of the LPS to the positive pole
migration of apoCI in agarose gel on binding of LPS ([6]; fixed amount of apoCI, increasing amounts of LPS, immunoblotting): accelerated migration of apoCI to the positive pole
effect on behavior of 125I-LPS after intravenous injection (liver uptake, residence in blood) [1]: inhibit the decrease of LPS from the blood strongly and dose-dependently; also recorded: strongly reducing the uptake of LPS by the liver
reduction of uptake of LPS by the liver ([1]; molar ratio LPS:apoCI 1:1, 125I-LPS Re595 10 μg/kg intravenously): 8 fold

apoCIII: apolipoprotein CIII, 79 amino acids, two amphipatic helices, comparable size and structure to apoCI [reference compound]
effect of LPS on quantification with apoCIII-specific sandwich ELISA ([3]; comparable apoCIII-specific sandwich ELISA): no effect
increase in FITC fluorescence (monomerization of LPS) [4]: hardly effective

B1: APDLSGTLESIPDKLKEFGNTLEDKARAAIEHIKQKEILTKTRAWFSEAFGKVKEKLKTTFS (protein)
chain: APDLSGTLESIPDKLKEFGNTLEDKARAAIEHIKQKEILTKTRAWFSEAFGKVKEKLKTTFS
modifications: Muss p.; SITE (1)..(62) primary amino acid sequence of apoCI
notes: endogenous mouse apolipoprotein CI in murine plasma
reduction of monomerization of FITC-LPS owing to absence of mouse-apoCI ([2]; plasma 0.125% of apoc1-/- mice versus wild-type): 60%

From patent US9176153B2, “Prevention therapy and prognosis/monitoring in sepsis and septic shock” (NEDERLANDSE ORGANISATIE VOOR […] ONDERZOEK TNO, priority 2002, dated 2015)
